Assay results from patent US8173697B2, “Alkoxyalkyl-substituted cyclic keto-enols” (Bayer CropScience AG, priority 2006, dated 2012).

How the values were obtained:
Format in all cases: in vivo
[1] = system: Spring barley; experiment: Greenhouse container trials with cereals, post-emergence, with and without safener
Protocol: (§1) Seeds of monocotyledonous and dicotyledonous weed plants and crop plants are placed in sandy loam soil in wood fibre pots or in plastic pots and are covered with earth and cultivated in a greenhouse and also, during the vegetation period, outdoors, outside of the greenhouse, under good growth conditions. 2 to 3 weeks after sowing, the trial plants are treated at the one- to three-leaf stage. The test compounds, formulated as wettable powders (WP) or liquids (EC), are sprayed onto the plants and the soil surface in various dosages, with a water application rate of 300 l/ha (converted) and with addition of wetting agent (0.2% to 0.3%). […]
(§2) If the testing is also to look at whether safeners can improve the tolerance of the crop plants for test substances, the following options are used for the application of the safener: • seeds of the crop plants are dressed with the safener substance prior to sowing (the amount of safener is stated as a percentage, based on the seed weight) • crop plants are sprayed with the safener, with a defined application rate per hectare, prior to application of the test substances (typically 1 day before the test substances are applied) • the safener is applied together with the test substance in the form of a tank mix (the amount of safener is reported in g/ha or as a proportion relative to the herbicide).
(§3) By comparing the effect of test substances on crop plants which have been treated with safener and without safener it is possible to assess the effect of the safener substance.

[2] = system: Spring wheat; experiment: as above; settings: 10 days after application
Protocol: as §1, §2, §3

[3] = system: Aphis gossypii; experiment: Aphis gossypii test (Example 12); settings: for Destruction (%) after 6 d: no additive
Protocol: For application with ammonium salts or phosphonium salts and penetration promoters (rapeseed oil methyl ester 500 EW) these are in each case added in a concentration of 1000 ppm a.i. to the spray liquor.
(§4) After the desired time the destruction in % is determined.

[4] = system: Maize - Arsenal; experiment: Greenhouse container trials with maize, pre-emergence, with and without safener; settings: 28 days after application
Text: Seeds of monocotyledonous and dicotyledonous weed plants and crop plants are placed in sandy loam soil in wood fibre pots or in plastic pots and are covered with earth. The test compounds, formulated as wettable powders (WP) or liquids (EC), are sprayed onto the soil surface in various dosages, with a water application rate of 300 l/ha (converted). The pots are then placed in a greenhouse under good growth conditions, and also, during the vegetation period, are placed outdoors, outside of the greenhouse, so that the plants are able to germinate and develop. 3 to 4 weeks after the trial plants have been treated, the effect of the products is rated visually in comparison to untreated controls (herbicidal effect in percent: 100% effect=plants have died, 0% effect=like control plants).
as §2, with “weight) • pots containing the crop plants” for “weight) • crop plants”, “test substances • the” for “test substances (typically 1 day before the test substances are applied) • the”
as §3

[5] = system: Myzus persicae; experiment: Myzus persicae test, activity boost through ammonium/phosphonium salts and penetration promoters (Example 11)
Protocol: For application with ammonium salts or phosphonium salts and penetration promoters (rapeseed oil methyl ester 500 EW) these are in each case added in a concentration of 1000 ppm to the spray liquor.
as §4

[6] = 20 ppm, no additive, bell pepper plants

Structure (SMILES): CCc1cc(-c2ccc(C)cc2)cc(C)c1C1=C(OC(=O)C(C)C)C(C)(COC)NC1=O (stereo not shown) [I-b-5]
- Spring barley observed (%) ([1]; 25 g a.i./ha, 28 days after application): 10%
- Spring barley observed (%) ([1]; 50 g a.i./ha, 10 days after application): 50%
- Spring barley observed (%) ([1]; 100 g a.i./ha, 10 days after application): 65%
- Spring barley observed (%) ([1]; 100 g a.i./ha, 28 days after application): 30%
- Spring wheat observed (%) ([2]; 50 g a.i./ha): 10%
- Spring wheat observed (%) ([2]; 100 g a.i./ha): 15%

Structure (SMILES): COCC1(C)NC(=O)C(c2c(C)ccc(-c3ccc(Cl)cc3)c2C)=C1O (stereo not shown) [I-a-7]
- Destruction (%) after 6 d +AS 1000 ppm ([3]; 20 ppm active compound): 10%
- Destruction (%) after 6 d +AS +RME 1000 ppm each ([3]; 20 ppm active compound): 90%
- Destruction (%) after 6 d +RME 1000 pm ([3]; 20 ppm active compound): 70%
- Destruction (%) after 6 d ([3]; 20 ppm active compound): 5%

Structure (SMILES): CCc1cc(-c2ccc(Cl)cc2)cc(CC)c1C1=C(OC(=O)C(C)C)C(C)(COC)NC1=O (stereo not shown) [I-b-2]
- Maize - Arsenal observed (%) ([4]; 25 g a.i./ha): 40%
- Maize - Arsenal observed (%) ([4]; 50 g a.i./ha): 50%

Structure (SMILES): COCC1(C)NC(=O)C(c2cc(-c3ccc(F)cc3)ccc2C)=C1O (stereo not shown) [I-a-12]
- Destruction (%) after 6 d ([5]; 20 ppm, +AS 1000 ppm): 0%
- Destruction (%) after 6 d ([5]; 20 ppm, +AS +RME 1000 ppm each): 99%
- Destruction (%) after 6 d ([5]; 20 ppm, +RME 1000 pm): 45%
- Destruction (%) after 6 d [5, 6]: 10%
- Destruction (%) after 6 d ([5]; 100 ppm, +AS 1000 ppm): 98%
- Destruction (%) after 6 d ([5]; 100 ppm, +AS +RME 1000 ppm each): 99%
- Destruction (%) after 6 d ([5]; 100 ppm, +RME 1000 pm): 99%
- Destruction (%) after 6 d ([5]; 100 ppm, no additive, bell pepper plants): 85%

Structure (SMILES): CCOC(=O)OC1=C(c2c(C)cc(-c3ccc(Cl)cc3)cc2CC)C(=O)NC1(C)COC (stereo not shown) [I-c-1]
- Maize - Arsenal observed (%) ([4]; 50 g a.i./ha): 55%

Structure (SMILES): COCC1(C)NC(=O)C(c2cc(-c3ccc(Cl)cc3)ccc2C)=C1O (stereo not shown) [I-a-1]
- Destruction (%) after 6 d ([5]; 4 ppm, +AS 1000 ppm): 0%
- Destruction (%) after 6 d ([5]; 4 ppm, +AS +RME 1000 ppm each): 75%
- Destruction (%) after 6 d ([5]; 4 ppm, +RME 1000 pm): 35%
- Destruction (%) after 6 d ([5]; 4 ppm, no additive, bell pepper plants): 0%
- Destruction (%) after 6 d ([5]; 20 ppm, +AS 1000 ppm): 65%
- Destruction (%) after 6 d ([5]; 20 ppm, +AS +RME 1000 ppm each): 99%
- Destruction (%) after 6 d ([5]; 20 ppm, +RME 1000 pm): 98%
- Destruction (%) after 6 d [5, 6]: 0%
- Destruction (%) after 6 d +AS 1000 ppm ([3]; 20 ppm active compound): 20%
- Destruction (%) after 6 d +AS +RME 1000 ppm each ([3]; 20 ppm active compound): 85%
- Destruction (%) after 6 d +RME 1000 pm ([3]; 20 ppm active compound): 5%
- Destruction (%) after 6 d ([3]; 20 ppm active compound): 5%
- Destruction (%) after 6 d +AS 1000 ppm ([3]; 100 ppm active compound): 90%
- Destruction (%) after 6 d +AS +RME 1000 ppm each ([3]; 100 ppm active compound): 90%
- Destruction (%) after 6 d +RME 1000 pm ([3]; 100 ppm active compound): 90%
- Destruction (%) after 6 d ([3]; 100 ppm active compound): 60%
